Experimental data reported in ChEMBL document CHEMBL1201862, “PubChem BioAssay data set” (2004).
Activity calls are given as the source filed them.

Legend:
Nonstructural protein 1 = Nonstructural protein 1 (Influenza A virus, UniProt Q194T2); format: functional, Influenza A virus (A/California/07/2009(H1N1))
[1] = target: T1, Rac GTPase-activating protein 1 (Homo sapiens, UniProt Q9H0H5); assay: blockers of MgcRacGAP-driven Rac1 GTP hydrolysis – biochemical, ADP Hunter fluorescence, primary and confirmatory, confirmation (AID 624330); format: functional
T1 sequence (Q9H0H5 whole entry): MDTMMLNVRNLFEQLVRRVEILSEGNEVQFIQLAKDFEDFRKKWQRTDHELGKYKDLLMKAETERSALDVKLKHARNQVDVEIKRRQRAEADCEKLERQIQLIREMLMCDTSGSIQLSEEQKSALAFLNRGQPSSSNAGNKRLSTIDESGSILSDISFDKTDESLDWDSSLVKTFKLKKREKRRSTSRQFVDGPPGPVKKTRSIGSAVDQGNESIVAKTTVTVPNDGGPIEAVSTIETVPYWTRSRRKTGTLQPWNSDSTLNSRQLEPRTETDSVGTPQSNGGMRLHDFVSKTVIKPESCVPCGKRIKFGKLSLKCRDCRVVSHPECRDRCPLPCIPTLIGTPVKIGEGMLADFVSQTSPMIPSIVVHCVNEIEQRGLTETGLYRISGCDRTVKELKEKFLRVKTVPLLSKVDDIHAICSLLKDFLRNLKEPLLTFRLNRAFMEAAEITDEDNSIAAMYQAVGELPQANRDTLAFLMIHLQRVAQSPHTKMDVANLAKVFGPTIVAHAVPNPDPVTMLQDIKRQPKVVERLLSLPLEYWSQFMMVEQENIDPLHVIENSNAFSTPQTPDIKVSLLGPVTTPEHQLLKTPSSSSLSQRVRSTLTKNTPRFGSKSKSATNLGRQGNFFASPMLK

[2] = microbe, parasite or virus in culture; format: functional; conditions: Mycobacterium tuberculosis
Leucine aminopeptidase = target: T2, Leucine aminopeptidase (Plasmodium falciparum 3D7, UniProt Q8IL11); assay: P. falciparum M17LAP inhibitors, primary screen, biochemical, fluorogenic H-Leu-NHMec substrate, 1536-well (AID 1619); format: functional
T2 sequence (Q8IL11 whole entry): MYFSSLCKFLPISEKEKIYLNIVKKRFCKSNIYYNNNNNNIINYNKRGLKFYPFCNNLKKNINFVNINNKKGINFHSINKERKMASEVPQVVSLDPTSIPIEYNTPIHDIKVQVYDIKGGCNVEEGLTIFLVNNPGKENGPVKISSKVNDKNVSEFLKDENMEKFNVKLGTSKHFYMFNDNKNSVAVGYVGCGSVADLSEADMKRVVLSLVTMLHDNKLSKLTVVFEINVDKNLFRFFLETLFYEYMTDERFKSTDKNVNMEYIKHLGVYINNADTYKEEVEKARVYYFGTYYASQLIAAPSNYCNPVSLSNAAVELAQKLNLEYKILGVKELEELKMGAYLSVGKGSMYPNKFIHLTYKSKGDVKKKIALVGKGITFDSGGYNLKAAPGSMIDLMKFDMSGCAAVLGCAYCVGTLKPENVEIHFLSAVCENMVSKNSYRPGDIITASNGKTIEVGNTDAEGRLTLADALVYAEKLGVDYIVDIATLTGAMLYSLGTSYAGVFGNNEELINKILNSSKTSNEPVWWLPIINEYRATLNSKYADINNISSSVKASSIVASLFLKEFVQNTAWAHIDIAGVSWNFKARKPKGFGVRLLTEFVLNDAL

cells [3] = format: functional, cell-based
cells [4] = format: functional, cell-based; remark: listed apart in the source
Cytochrome P450 2D6 = Cytochrome P450 2D6 (Homo sapiens, UniProt P10635);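 note: CYP2D6 member of a cytochrome P450 panel assay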
Cytochrome P450 2D6, sequence (P10635 whole entry): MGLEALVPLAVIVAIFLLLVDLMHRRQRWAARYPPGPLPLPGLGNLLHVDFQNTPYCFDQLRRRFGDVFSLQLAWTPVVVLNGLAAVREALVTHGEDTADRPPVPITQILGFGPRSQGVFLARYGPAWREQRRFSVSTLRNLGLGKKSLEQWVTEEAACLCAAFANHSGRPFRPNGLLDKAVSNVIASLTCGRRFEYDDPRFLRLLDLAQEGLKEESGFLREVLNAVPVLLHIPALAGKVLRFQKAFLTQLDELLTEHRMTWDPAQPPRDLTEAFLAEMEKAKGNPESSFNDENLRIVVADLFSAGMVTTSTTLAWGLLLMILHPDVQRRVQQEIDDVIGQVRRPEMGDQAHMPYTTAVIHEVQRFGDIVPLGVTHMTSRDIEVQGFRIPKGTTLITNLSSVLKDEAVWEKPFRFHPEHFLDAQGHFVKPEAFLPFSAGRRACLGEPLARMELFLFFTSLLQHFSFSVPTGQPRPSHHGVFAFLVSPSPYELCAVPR

Aminopeptidase N = target: T3, Aminopeptidase N (Plasmodium falciparum FcB1/Columbia, UniProt O96935); assay: malaria alanyl aminopeptidase activity blockers – biochemical, fluorogenic H-Leu-NHMec substrate, 1536-well (AID 1445); set-up: species or system Plasmodium falciparum 3D7, 3D7
T3 sequence (O96935 whole entry): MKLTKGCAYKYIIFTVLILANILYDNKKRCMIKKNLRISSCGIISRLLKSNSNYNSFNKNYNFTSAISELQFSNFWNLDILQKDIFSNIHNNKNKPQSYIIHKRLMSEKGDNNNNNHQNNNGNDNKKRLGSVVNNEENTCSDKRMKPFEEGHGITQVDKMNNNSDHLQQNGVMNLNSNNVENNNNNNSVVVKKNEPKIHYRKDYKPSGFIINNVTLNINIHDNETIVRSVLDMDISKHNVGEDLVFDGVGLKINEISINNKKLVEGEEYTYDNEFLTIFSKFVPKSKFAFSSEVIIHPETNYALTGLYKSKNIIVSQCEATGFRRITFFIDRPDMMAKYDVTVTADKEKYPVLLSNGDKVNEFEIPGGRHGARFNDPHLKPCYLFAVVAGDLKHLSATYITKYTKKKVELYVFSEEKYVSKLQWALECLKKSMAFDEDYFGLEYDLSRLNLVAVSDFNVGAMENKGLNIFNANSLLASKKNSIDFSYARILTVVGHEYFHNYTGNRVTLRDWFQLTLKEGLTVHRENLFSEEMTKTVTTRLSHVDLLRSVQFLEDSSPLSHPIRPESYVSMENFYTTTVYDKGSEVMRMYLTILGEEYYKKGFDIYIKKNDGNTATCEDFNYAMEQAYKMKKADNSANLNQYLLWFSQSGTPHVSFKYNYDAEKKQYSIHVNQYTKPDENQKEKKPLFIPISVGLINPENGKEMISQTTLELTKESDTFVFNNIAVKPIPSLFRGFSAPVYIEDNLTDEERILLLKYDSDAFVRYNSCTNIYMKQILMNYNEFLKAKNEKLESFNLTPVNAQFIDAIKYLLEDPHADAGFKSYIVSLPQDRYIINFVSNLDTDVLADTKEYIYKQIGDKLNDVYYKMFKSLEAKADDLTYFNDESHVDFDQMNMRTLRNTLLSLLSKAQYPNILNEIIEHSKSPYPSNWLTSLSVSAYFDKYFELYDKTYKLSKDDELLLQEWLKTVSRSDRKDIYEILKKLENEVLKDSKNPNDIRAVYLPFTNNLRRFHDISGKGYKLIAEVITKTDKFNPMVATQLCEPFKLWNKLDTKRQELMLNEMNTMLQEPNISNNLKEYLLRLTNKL

[5] = target: T4, Heat shock factor protein 1 (Mus musculus, UniProt P38532); assay: decrease of HSF1-responsive luciferase luminescence – cell-based, NIH3T3, dose retest, confirmation (AID 2382); format: functional;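 note: NIH3T3 fibroblasts with HSF1-driven luciferase reporter stressed by proteasome inhibitor MG132; luminescence from HSF1-driven luciferase expression after 8 hours of MG132 stress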
T4 sequence (P38532 whole entry): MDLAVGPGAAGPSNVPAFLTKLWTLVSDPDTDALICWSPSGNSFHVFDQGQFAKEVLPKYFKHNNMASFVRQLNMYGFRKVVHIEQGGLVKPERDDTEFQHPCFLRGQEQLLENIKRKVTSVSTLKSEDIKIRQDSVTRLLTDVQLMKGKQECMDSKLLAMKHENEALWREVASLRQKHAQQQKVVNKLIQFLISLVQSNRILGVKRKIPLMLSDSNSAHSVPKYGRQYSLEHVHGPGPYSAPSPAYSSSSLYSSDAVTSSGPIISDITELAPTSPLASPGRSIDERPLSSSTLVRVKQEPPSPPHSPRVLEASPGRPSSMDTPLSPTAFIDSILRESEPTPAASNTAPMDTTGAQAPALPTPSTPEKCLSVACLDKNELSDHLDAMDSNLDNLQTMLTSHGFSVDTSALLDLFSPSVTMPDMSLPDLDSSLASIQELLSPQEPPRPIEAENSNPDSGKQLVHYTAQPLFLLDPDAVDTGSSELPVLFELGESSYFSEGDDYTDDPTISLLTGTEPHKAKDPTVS

Vero = assay: cells; format: functional; conditions: Chlorocebus sabaeus
[6] = viability of PTEN-deleted HCT116 cells – cell-based, HCT116 PTEN knockout, dose response (AID 1047); format: functional;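 note: HCT116 colon tumor cells with PTEN knocked out; cells exposed to compound for 60 hours before readout; potency for loss of cell viability measured by luminescence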
[7] = Luminescence Cell-Based Dose Retest to Confirm Inhibitors of Cancer Stem Cells. [Related pubchem assays (depositor defined):AID2717, AID2721]; format: functional; conditions: Homo sapiens
[8] = viability of HCT116 lacking mutant beta-catenin – cell-based, human colon tumor, dose response (AID 1045); format: functional;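 note: HCT116 colon tumor cells with beta catenin knocked out; cells exposed to compound for 60 hours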
[9] = HIV-1 AD8 envelope cell-cell fusion blockers – cherry-pick, dose response (AID 652062); format: functional, cell-based;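 note: luciferase signal from cell-cell fusion driven by HIV-1 clade B AD8 Env; potency is for inhibitors of fusion seen as a drop in luminescence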
[10] = NIH-3T3 fibroblast cytotoxicity, dose response, cytotoxicity control, cell-based, fluorescence, Alamar Blue, secondary assay (AID 2327); format: functional;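 note: NIH-3T3 mouse fibroblasts cultured with fluconazole at 8 µg/mL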
[11] = viability of uninfected HEp-2 cells – cell-based, HTS, cytotoxicity control for RSV inhibitor project, dose response (AID 2410); format: functional; conditions: human respiratory syncytial virus
[12] = target: Heat shock protein HSP 90-alpha (Homo sapiens, UniProt P07900); format: functional, organism-based
[13] = fluconazole-exposed Candida albicans growth modulators – fluorescence, retest, confirmation (AID 2467); format: functional, cell-based
Cytochrome P450 2C9 = Cytochrome P450 2C9 (Homo sapiens, UniProt P11712)
Cytochrome P450 2C9, sequence (P11712 whole entry): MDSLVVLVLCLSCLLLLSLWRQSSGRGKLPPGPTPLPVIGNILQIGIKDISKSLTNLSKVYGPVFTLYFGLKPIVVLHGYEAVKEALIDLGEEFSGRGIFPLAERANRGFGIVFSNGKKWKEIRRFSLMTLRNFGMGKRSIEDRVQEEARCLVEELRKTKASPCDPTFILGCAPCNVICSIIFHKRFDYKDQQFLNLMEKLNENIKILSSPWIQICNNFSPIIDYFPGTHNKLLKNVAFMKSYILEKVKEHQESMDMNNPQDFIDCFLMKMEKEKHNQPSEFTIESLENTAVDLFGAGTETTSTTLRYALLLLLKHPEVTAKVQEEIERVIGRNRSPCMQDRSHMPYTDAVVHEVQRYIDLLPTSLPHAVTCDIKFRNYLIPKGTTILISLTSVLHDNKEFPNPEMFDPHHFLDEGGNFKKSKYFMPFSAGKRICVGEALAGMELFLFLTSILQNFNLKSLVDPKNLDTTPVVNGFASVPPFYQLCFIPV

HEK293 = assay: EBV LMP1 TES2 canonical NF-kB signalling blockers – cell-based, HEK293, luciferase, cherry-pick, dose response (AID 588343); format: functional; conditions: Homo sapiens

Nonstructural protein 1, sequence (Q194T2 whole entry): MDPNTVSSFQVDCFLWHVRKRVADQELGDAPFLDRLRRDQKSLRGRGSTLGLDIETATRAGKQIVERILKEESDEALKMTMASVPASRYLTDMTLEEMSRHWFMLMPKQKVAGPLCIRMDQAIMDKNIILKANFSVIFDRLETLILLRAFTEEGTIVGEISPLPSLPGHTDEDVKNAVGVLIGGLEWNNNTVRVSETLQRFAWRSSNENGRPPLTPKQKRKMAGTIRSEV

With `O=C(CNCc1ccccn1)N1CCc2ccccc2C1` the IC50 (Nonstructural protein 1) was 3.54 µM (active) and the IC50 [1] was 177 µM (active).

In the case of `CCC(=O)NC(=S)Nc1ccc(NC(=O)COc2ccc(Cl)cc2Cl)cc1`, the CC50 [2] is reported as 39.6 µM (active).

For `O=C(CSc1nnc(NC(=O)c2c(F)cccc2F)s1)Nc1ccc(F)cc1`, the IC50 (Leucine aminopeptidase) was 32.3 µM (active).

For `Cc1ccc(CNC(=O)NC2CCCCC2)cc1`, the EC50 (cells [3]) was > 350 µM (not active) and the EC50 (cells [4]) was 55 µM (active).

In the case of `CCCCOc1ccc(CC(=O)NO)cc1` [BUFEXAMAC], the IC50 (Leucine aminopeptidase) is reported as < 1 µM (active), the AC50 (Cytochrome P450 2D6) is reported as 10 µM (inconclusive) and the IC50 (Aminopeptidase N) is reported as 81.2 µM (active). For the same compound, the EC50 [5] was > 195 µM (not active).

For `COc1ccc2ccccc2c1/C=N/Nc1cccc(C(=O)O)c1`, the EC50 (cells [3]) was > 350 µM (not active) and the EC50 (cells [4]) was 16.8 µM (active).

For `CC(c1ccccc1)N1CCN(C(=O)CCl)CC1` (stereo not drawn), the CC50 [2] was 17.9 µM (active), the CC50 (Vero) was 9.03 µM (active) and the EC50 [5] was 43.8 µM (active).

With `C=CCn1cccc(/C=C/C(=O)c2ccc(C(C)(C)C)cc2)c1=S` the CC50 [2] was 10.3 µM (active), the EC50 [6] was 4.04 µM (active) and the AC50 [7] was 5.64 µM (active). The EC50 [8] was 2.56 µM (active).

For `Cc1onc(-c2ccccc2)c1C(=O)Nc1ccc(Br)cc1Cl`, the AC50 [9] was 3.43 µM (active).

For `O=C(N/N=C/c1ccccn1)c1cc(-c2ccc(Cl)cc2)nc2ccccc12`, the EC50 [10] was 20.6 µM (active), the CC50 [11] was 11.8 µM (active) and the CC50 (Vero) was 14.2 µM (active). The AC50 [12] was 7.9 µM (active) and the EC50 [13] was 1.06 µM (active).

With `CSc1ccc(N/N=C(/C#N)S(=O)(=O)C(C)(C)C)cc1` the IC50 (Leucine aminopeptidase) was 30.6 µM (active).

For `CCOc1ccc(-c2c(C(=O)N/N=C/c3cccnc3)nnn2-c2nonc2N)cc1`, the EC50 (cells [3]) was > 350 µM (not active) and the EC50 (cells [4]) was > 350 µM (not active).

With `Cc1ccc(C(=O)N/N=C/c2sc(=O)n(Cc3cccc(C(=O)O)c3)c2Cl)cc1` the IC50 (Leucine aminopeptidase) was 17.8 µM (active) and the AC50 (Cytochrome P450 2C9) was 12.6 µM (inconclusive).

For `CNS(=O)(=O)c1cccc(C(=O)OCC(=O)c2ccc3c(c2)OCCO3)c1`, the AC50 (HEK293) was 8.57 µM (active).

In the case of `N#Cc1ncc(N=Cc2ccc(N(CCCl)CCCl)cc2)s1`, the AC50 (HEK293) is reported as 1.22 µM (active).

With `O=C(O)c1ccc(N/N=C/c2ccc(C(F)(F)F)cc2)cc1` the IC50 (Leucine aminopeptidase) was 46.3 µM (active).
